Measured values taken from US9702880B2, “Antisense RNA for treating cancer and inhibition of metastasis and vectors for antisense sequestration” (Istituto Superiore di Sanità, priority 2008, dated 2017).
Where two headings read alike, the source gives them in different places.

Columns and labels:
LNCaP cells = details: 10 ng/ml
Protocol: FIG. 12A Evaluation of cell death and caspase activation in RWPE-1 cells infected with TW3′ or decoy15/16 vectors and treated with 10 ng/ml of docetaxel. Caspase activation was measured after 4 h of treatment. FIG. 12B Evaluation of cell death and caspase activation in LNCaP cells infected with TW or TWmiR-15a/miR-16 vectors and exposed to 10 ng/ml of docetaxel. FIG. 12C-D Evaluation of cell death and caspase activation in miR15a/miR-16 defective or non-defective (normal) primary tumor cells transduced as indicated and treated with 10 ng/ml docetaxel. FIG. 12C. Cell death was measured after 24 h exposure to docetaxel. FIG. 12D. Caspase activation in LNCaP and primary tumor cells was measured after 18 h of treatment. Data are mean±s.d. of at least three independent experiments for each group.
Cell death was evaluated by trypan blue staining, PI staining and flow cytometry analysis, Apo-percentage assay (Biocolor) and Cell Titer kit (Promega). Caspase activation was detected using APO-one Homogeneous Caspase3/7 Assay Kit (Promega).

Pim-1 UTR = test: Luciferase reporter assay, pGL3-3′UTR cotransfected with miR oligos; assay type: cell-based, human; details: K562 cells, 48 hours post-transfection, vs scrambled oligos
cyclin D1 3′UTR = test: as above; assay type: cell-based, human; details: K562 cells, 25 pmol oligo, 48 hours post-transfection, vs scrambled oligos
Protocol: (§1) 3′UTR segments of Bcl-2, cyclin D1 and Wnt3a were amplified by PCR from normal human genomic DNA and subcloned into the 3′UTR of the firefly luciferase coding sequence into pGL3-Promoter (Promega), see Supplementary Methods. Then K562 (5×10^4 cells per well) were transfected using Lipofectamine 2000 (Invitrogen) following the manufacturer's instructions. The transfection mix included: (a) 0.8 μg of pGL3-3′UTR plasmid and 50 ng of the control vector pRL-TK (Promega); (b) 25 pmol of either non-targeting RNA control (scrambled) or miR-15a or miR-16 oligonucleotides (Ambion). Forty-eight hours post-transfection, firefly and renilla luciferase activities were measured using the Dual Luciferase Assay kit (Promega). Transfection efficiencies were normalized by calculating the ratio of firefly to renilla. For each construct the relative luciferase activities were calculated by dividing the values obtained in the transfection of miR-15a and miR-16 by those of miR scrambled. Each experiment was performed in duplicate and replicated five times.
(§2) The miR-15a/miR-16 target genes UTRs were cloned in the Xba I site of pGL3 promoter, immediately downstream from the stop codon of the luciferase coding sequence. For Bcl-2, a 3′UTR of 1329 bp fragment was amplified, corresponding to residues 2446-3774 of Genbank Acc No M14745. For cyclin D1 3′UTR, a 1036 bp fragment was amplified ([…] of No NM_053056). For Wnt3a 3′UTR, a 906 bp fragment was amplified (residues 2026-2932 of No NM_033131.2). For 3′UTR cyclin D1 and Wnt3a mutagenesis, a five nucleotide mutation was inserted in the “seed” sequences interacting with miR-15a and miR-16 (see FIGS. 13A-C). Modified and HPLC purified oligonucleotides (Invitrogen) were used for amplification and mutagenesis, performed with Pfu enzyme following the in vitro mutagenesis kit protocol (Invitrogen). Transfection efficiencies of luciferase assays were normalized by calculating the ratio firefly/renilla. For each construct the relative luciferase activities were obtained by dividing the values obtained in the transfection of miR-15a and miR-16 by those of the non targeting miR scrambled. Each experiment was performed in duplicate and replicated five times.
(§3) To validate our targets, we subcloned the 3′UTR of these genes at the 3′ of the cDNA encoding luciferase in an expression construct and performed cotransfection experiments with miR-15a/miR-16. We narrowed our analysis to 1 kb regions harbouring the putative miR-15a/miR-16 target sites. The Bcl-2 3′UTR was tested in parallel as positive control. Luciferase assay was performed by cotransfecting pGL3-3′UTR vectors along with synthetic miR-15a, miR-16 and a control miR with a scrambled sequence.

Wnt3a 3′UTR = test: as above; assay type: cell-based, human; details: K562 cells, 25 pmol oligo, 48 hours post-transfection, vs scrambled oligos
Protocol: as §1, §2, §3

Bcl-2 3′UTR = test: Luciferase reporter assay, pGL3-3′UTR cotransfected with miR oligos (positive control); assay type: cell-based, human; details: K562 cells, 25 pmol oligo, 48 hours post-transfection, vs scrambled oligos
Protocol: as §1
The miR-15a/miR-16 target genes UTRs were cloned in the Xba I site of pGL3 promoter, immediately downstream from the stop codon of the luciferase coding sequence. For Bcl-2, a 3′UTR of 1329 bp fragment was amplified, corresponding to residues 2446-3774 of Genbank Acc No M14745. […]

| Compound | Cytotoxic activity of docetaxel (LNCaP cells; empty vector-transduced LNCaP cells) | Cytotoxic activity of docetaxel (LNCaP cells; miR-15a/miR-16 reconstituted LNCaP cells) | Luciferase reporter activity (Pim-1 UTR) | Luciferase reporter activity (cyclin D1 3′UTR) | Luciferase reporter activity (Wnt3a 3′UTR) | Luciferase reporter activity (Bcl-2 3′UTR) |
| --- | --- | --- | --- | --- | --- | --- |
| CC(=O)O[C@@]12CO[C@@H]1C[C@H](O)[C@@]1(C)C(=O)[C@H](O)C3=C(C)[C@@H](OC(=O)[C@H](O)[C@@H](NC(=O)OC(C)(C)C)c4ccccc4)C[C@@](O)([C@@H](OC(=O)c4ccccc4)[C@H]21)C3(C)C [docetaxel] | scarcely sensitive | massively killed | – | – | – | – |
| miR-15a: mature miR 15, SEQ ID NO 4, 5′-UAGCAGCACAUAAUGGUUUGUG-3′; synthetic oligonucleotide (Ambion) in reporter assays (listed as RNA, chemistry not given here; listed as Homo sapiens) | – | – | non-targeted region | consistent reduction in reporter activity | consistent reduction in reporter activity | consistent reduction in reporter activity |
| miR-16: mature miR 16, SEQ ID NO. 5, 5′-UAGCAGCACGUAAAUAUUGGCG-3′; synthetic oligonucleotide (Ambion) in reporter assays (listed as RNA, chemistry not given here; listed as Homo sapiens) | – | – | non-targeted region | consistent reduction in reporter activity | consistent reduction in reporter activity | consistent reduction in reporter activity |
